Measurements reported in patent US20240279195A1, “SOLID STATE FORMS OF ABEXINOSTAT AND PROCESS FOR PREPARATION THEREOF” (TEVA PHARMACEUTICALS INTERNATIONAL GMBH, priority 2021, published 2024).

Experiment: solid state stability of the crystalline form upon heating, pressure, grinding and exposure to humidity
Type: physicochemical

Row | stability of the crystalline form | Substance
1 | stable | Abexinostat fumarate [Form F3]
2 | stable | Abexinostat maleate [Form M1]
3 | stable | Abexinostat tosylate [Form T1]
